Test results from patent publication US20070185020A1, “Methods and compositions for treating disorders of the extracellular matrix” (priority 2003, published 2007).

Columns and labels:
CDA1 [1] = experiment: CDA1 expression in kidney after angiotensin II infusion (immunohistochemistry); assay type: in vivo, rat
Protocol: Ang II was continuously infused into rats by subcutaneously inserted minipump for 3 days or 14 days at both pressor (60 ng/min) and non-pressor doses (6 ng/min) in eight week old male Sprague Dawley (SD) rats (Cao et al Z; The angiotensin type 2 receptor is expressed in adult rat kidney and promotes cellular proliferation and apoptosis. Kidney int. 2000; 58:2437-2451).
CDA1 staining was performed using a rabbit antihuman CDA1 serum (Chai et al, 2001) in paraffin embedded sections. In brief, following dewaxing, paraffin embedded sections were treated in a microwave oven at low power for 10 minutes in 10 mmol/L sodium citrate buffer (pH 6.0). Endogenous peroxidase was inactivated using 3% hydrogen peroxide (H2O2) in methanol for 20 minutes. The sections were blocked with protein block agent for 20 minutes. The sections were incubated with rabbit antihuman CDA1 serum for 2 hour at room temperature. Biotinylated goat anti-rabbit immunogloblulin (DAKO A/S) was used as a second antibody, followed by avidin biotin horseradish peroxidase complex (ABC Elite kit, Victor Laboratories, Burlingame, Calif.). Detection was accomplished by reaction with 3,3′-diaminobenzidine tetrahydrochloride (DAB, Sigma Chemical Co., St Louis, Mo.) (Cao Z et al. The angiotensin type 2 receptor is expressed in adult rat kidney and promotes cellular proliferation and apoptosis. Kidney Int. 2000; 58:2437-2451.

CDA1 [2] = experiment: CDA1 expression and fibrosis in the remnant kidney following subtotal nephrectomy (STNx); assay type: in vivo, rat; settings: preliminary data
Protocol: Subtotal nephrectomy (STNx) were performed by right nephrectomy, followed by infarction of approximately two-thirds of the left kidney with selective ligation of all but one extrarenal branch of the left renal artery (CIA40). Anaesthesia was achieved by intraperitoneal injection of pentobarbitone sodium (60 mg/kg). Sham operated rats were used as controls. After operation, the animals were sacrificed at 1, 2, 4, 8 and 12 week and tissue collected for assessment of CDA1 expression and fibrotic growth factors as well as matrix proteins. CDA1 staining was performed using a rabbit antihuman CDA1 serum (Chai et al, 2001) in paraffin embedded sections. In brief, following dewaxing, paraffin embedded sections were treated in a microwave oven at low power for 10 minutes in 10 mmol/L sodium citrate buffer (pH 6.0). Endogenous peroxidase was inactivated using 3% hydrogen peroxide (H2O2) in methanol for 20 minutes. The sections were blocked with protein block agent for 20 minutes. The sections were incubated with rabbit antihuman CDA1 serum for 2 hour at room temperature. Biotinylated goat anti-rabbit immunogloblulin (DAKO A/S) was used as a second antibody, followed by avidin biotin horseradish peroxidase complex (ABC Elite kit, Victor Laboratories, Burlingame, Calif.). […]

CDA1 [3] = settings: in vitro; reported by other workers; cited from earlier work

CCCCC(=O)N(Cc1ccc(-c2ccccc2-c2nnn[nH]2)cc1)[C@H](C(=O)O)C(C)C [valsartan]
Effect on increased CDA1 expression following Ang II infusion (CDA1 [1]; treatment with AT1 receptor antagonist, data not shown): prevented
Effect on cell injury in remnant kidney (CDA1 [2]): less cell injury
Effect on CDA1 expression in remnant kidney (CDA1 [2]; FIG. 3B): attenuation of CDA1 expression

angiotensin II (DRVYIHPF; Angiotensin-2; UniProt P01015 25-32, looked up) [Ang II, peptide hormone infused into rats by minipump to stimulate CDA1 expression]
CDA1 expression after angiotensin II infusion (CDA1 [1]; immunohistochemical staining, proximal tubules, subcutaneous minipump infusion in Sprague Dawley rats): increased CDA1 expression

TGF β1: growth factor; CDA1 described as a TGF β1 target gene
CDA1 expression (CDA1 [3]): increased
